Results: patent US20060051291A1, “Synthesis of radiolabeled sugar metal complexes” (priority 2004, published 2006)

Assay type: physicochemical
Description: Minor species are also detected by UV/visible spectroscopy in the HPLC of the complex and become more significant over time. The ^13C{^1H} NMR spectrum (d6-DMSO) of the complex was fully assigned for the α-anomer, and partially assigned for the β-anomer (as reflected above in TABLE 1).

stability in solution: become visibly brown
Substance: Tricarbonyl (N-(2′-Hydroxybenzyl)-2-amino-2-deoxy-D-glucose) rhenium(I) [[(L^2)Re(CO)3]]
